Data published in patent US20150175655A1 (priority 2012, published 2015).

Columns and labels:
[1] = test system: genotype 1a transient HCV replicon, NS3/4a protease inhibitor resistant variant R155K, in Huh-7-derived cells; assay: Transient-transfected HCV replicon EC50, genotype 1a R155K; type: cell-based; conditions: Hepatitis C virus, 72 h, read-out: EC50 1A R155K
[2] = test system: genotype 2a stable HCV replicon (JFH-1 strain) in Huh-7-derived cells; assay: Stable subgenomic HCV replicon EC50, genotype 2a (Renilla luciferase); type: cell-based; conditions: Hepatitis C virus, stable replicon genotype 2a, 72 h, read-out: EC50 2A RLUC
Procedure: (§1) Antiviral potency (EC50) was determined in both stable subgenomic HCV replicon cell lines and transient-transfected HCV replicon cells. The term half maximal effective concentration (EC50) refers to the concentration of a drug which induces a response halfway between the baseline and maximum after the exposure time specified below.
(§2) Stable subgenomic HCV replicons for genotype 1a, 1 b, 2a, 3a, and 4a were established in Huh-7-derived cells as described by Lohmann et al (Lohmann V, Korner F, Koch J, et al Replication of subgenomic hepatitis C virus RNAs in a hepatoma cell line. Science 1999; 285:119-3). Each stable cell line contains a bicistronic HCV replicon that encodes a humanized Renilla luciferase (hRLuc) reporter gene fused to a selectable neomycin-resistance gene, followed by an EMCV IRES and the NS3-NS5B coding region of HCV. […] Luciferase activity was measured as a marker for intracellular HCV replication levels.
(§3) The genotype 1a stable replicon was derived from the H77 HCV strain and contained adaptive mutations P1496L and S2204I. The genotype 1 b stable replicon was derived from the Cont HCV strain and contained adaptive mutations E1202G, T1280I, and K1846T. […] The genotype 3a stable replicon was derived from the S52 HCV strain and contained adaptive mutations P1121 L, A1198T and S2210I (equivalent to S2204I in genotype 1). The genotype 4a stable replicon was derived from the ED43 HCV strain and contained adaptive mutations Q1691R and S2204I. All replicon cell lines were propagated in Huh-7-derived cells and maintained in Dulbecco's modified Eagle's Medium (DMEM) supplemented with 10% fetal bovine serum (FBS) and 0.5 mg/mL G418.
(§4) To perform EC50 assays, cells from each HCV replicon were dispensed into 384-well plates. Compounds were dissolved in DMSO at a concentration of 10 mM and diluted in DMSO using an automated pipetting instrument. Three-fold serially diluted compounds were directly added to the cells using an automated instrument. […] Seventy-two hours later, cells were lysed and Renilla luciferase activity were quantified as recommended by the manufacturer (Promega-Madison, Wis.). Non-linear regression was performed to calculate EC50 values.

[3] = test system: genotype 1b stable HCV replicon in Huh-7-derived cells; assay: Stable subgenomic HCV replicon EC50, genotype 1b (Renilla luciferase); type: cell-based; conditions: Hepatitis C virus, stable replicon genotype 1b, 72 h, read-out: EC50 1B RLUC
Procedure: as §1, §2, §3, §4

[4] = test system: genotype 1a stable HCV replicon (H77 strain) in Huh-7-derived cells; assay: Stable subgenomic HCV replicon EC50, genotype 1a (Renilla luciferase); type: cell-based; conditions: Hepatitis C virus, stable replicon genotype 1a, 72 h, read-out: EC50 1A RLUC
Procedure: as §1, §2, §3, §4

[5] = test system: genotype 1a (H77) wild-type transient HCV replicon in Huh-7-derived cells; assay: Transient-transfected HCV replicon EC50, genotype 1a wild type; type: cell-based; conditions: Hepatitis C virus; transient-transfected replicon genotype 1a wild type, 72 h; read-out: EC50 1A WT
[6] = test system: genotype 1b transient HCV replicon, NS3/4a protease inhibitor resistant variant D168A, in Huh-7-derived cells; assay: Transient-transfected HCV replicon EC50, genotype 1b D168A; type: cell-based; conditions: Hepatitis C virus, 72 h, read-out: EC50 1B D168A
[7] = test system: genotype 4a stable HCV replicon (ED43 strain) in Huh-7-derived cells; assay: Stable subgenomic HCV replicon EC50, genotype 4a (Renilla luciferase); type: cell-based; conditions: Hepatitis C virus, 72 h, read-out: EC50 4A RLUC
Procedure: as §1, §2, §3, §4

[8] = test system: genotype 1b (Con1) wild-type transient HCV replicon in Huh-7-derived cells; assay: Transient-transfected HCV replicon EC50, genotype 1b wild type; type: cell-based; conditions: Hepatitis C virus; transient-transfected replicon genotype 1b wild type, 72 h; read-out: EC50 1B WT
[9] = test system: genotype 3a transient HCV replicon (S52 strain) in Huh-7-derived cells; assay: Transient-transfected HCV replicon EC50, genotype 3a wild type; type: cell-based; conditions: Hepatitis C virus; transient-transfected replicon genotype 3a wild type, 72 h; read-out: EC50 3A WT
[10] = test system: genotype 3a stable HCV replicon (S52 strain) in Huh-7-derived cells; assay: Stable subgenomic HCV replicon EC50, genotype 3a (Renilla luciferase); type: cell-based; conditions: Hepatitis C virus, 72 h, read-out: EC50 3A RLUC
Procedure: as §1, §2, §3, §4

NS3 genotype 1b protease = target: T1, NS3 genotype 1b protease (Hepatitis C virus genotype 1b, UniProt Q9WMX2, E1202G); assay: Ki determination, NS3 protease genotype 1b (fluorogenic depsipeptide substrate); type: biochemical
T1 construct: Purified NS3 protease domain (amino acids 1-181) of the genotype 1b and 3a virus were generated as above; K3 hexahistidine tag (N); rTEV protease cleavage site (N); made in house; host or cells: E. coli BL21AI, pET28 vector p28-N6H-Tev-NS3(181)1b
From the text: The coding sequence of the genotype 1b (con-1 strain) HCV NS3 protease domain was PCR amplified from a plasmid encoding the I389luc-ubi-neo/NS3-3′/ET replicon (Reblikon, Mainz, Germany). The 5′-PCR primer was designed to encode an N-terminal K3 hexahistidine tag and to insert an in-frame recombinant Tobacco Etch virus (rTEV) protease cleavage site into the NS3 coding sequence. The resulting DNA fragment was cloned into the pET28 protein expression vector (Invitrogen, Carlsbad, Calif.) yielding the p28-N6H-Tev-NS3(181)1b.
BL21AI bacteria (Invitrogen, Carlsbad, Calif.) were transformed with genotype 1b or 3 NS3 expression vectors and used to inoculate a 20 L fermentation vessel (Sartorius BBI System Inc., Bethlehem, Pa.), containing 18 L of fresh 2YT medium supplemented with 50 μg/mL kanamycin. When cell densities reached an OD600 of 1, the temperature of the cultures was reduced from 37° C. to 28° C. and induction was immediately initiated by the addition of 30 μM ZnSO4, 14 mM L-arabinose and 1 mM Isopropyl β-D-thiogalactoside (IPTG) final concentrations. Cells were harvested by centrifugation four hours post-induction and were stored as frozen pellets at −80° C. prior to NS3 protein purification.
Cell pellets were thawed and resuspended at 10 mL/g cells in lysis buffer containing 50 mM tris pH 7.6, 300 mM NaCl, 0.1% 3-[(3-cholamidopropyl)dimethylammonio]-1-propanesulfonate (CHAPS), 5% glycerol, and 2 mM β-mercaptoethanol. Cell suspensions were then sonicated, filtered through cheesecloth, and passed three times through a microfluidizer at 18,000 pounds/in^2. The resulting lysates were centrifuged at 15500 rpm for 45 minutes and supernatants were loaded onto a HisTrap HP column (GE Lifesciences) pre-equilibrated with five volumes of Ni buffer A (50 mM tris pH 7.6, 300 mM NaCl, 0.1% CHAPS, 5% glycerol, 2 mM β-mercaptoethanol, 50 mM imidazole-HCl). Proteins were eluted with a 0-100% gradient of Ni buffer A plus 500 mM imidazole-HCl and fractions were collected and pooled. The HisTrap pool was diluted 1:10 with SP-A buffer (50 mM tris pH 7.0, 10% glycerol, 2 mM dithiothreitol (DTT)) and loaded onto a HiTrap SP-HP column (GE Lifesciences) equilibrated with SP-A buffer. NS3 protease was eluted with a 0-100% SP-B buffer (SP-A buffer plus 1 M NaCl) gradient. Concentrated pools of NS3-containing SP fractions were aliquoted, snap frozen in liquid nitrogen and stored at −80° C.
Purified NS3 protease domain (amino acids 1-181) of the genotype 1b and 3a virus were generated as above.
Reactions were run at room temperature in buffer consisting of 50 mM HEPES, 40% glycerol, 0.05% Triton X-100, 10 mM DTT, and 10% DMSO. The final assay solutions contained 50 pM NS3 genotype 1b protease or 200 pM genotype 3a protease, 20 μM NS4A peptide, and 4 μM substrate (genotype 1 b) or 2 μM substrate (genotype 3a). Inhibitor concentrations varied from 100 nM to 5 pM in 3-fold dilutions, and no-inhibitor controls were included.
Compound dilutions were made in DMSO at 20× final concentration. Reaction mixtures were prepared in 96-well assay plates. A solution of enzyme and NS4A peptide in assay buffer (25 μL volume with both reagents at 4× final concentration) was mixed with 45 μL assay buffer and 5 μL of either inhibitor or DMSO, and pre-incubated at room temperature for 1 hour. The reaction was started by addition of 25 μL substrate solution at 4× final concentration. Plates were mixed vigorously for 5-10 seconds and reactions were allowed to proceed for 90 minutes. fluorescence was measured every 30 s between 90 and 120 minutes reaction time using a Tecan InfiniTe M1000 or PerkinElmer Envision multimode plate reader with an excitation wavelength of 340 nm and an emission wavelength of 490 nm.
To determine the K, rates were plotted as a function of inhibitor concentration, and the data were fit with equation 1 (Morrison, J. F., Biochimica et Biophysica Acta 1969, 185, 269-286) to calculate Ki^app using GraphPad Prism 5.

SMILES: CC[C@@H]1[C@@H]2CN(C(=O)[C@H](C(C)(C)C)NC(=O)O[C@@H]3C[C@H]3CC/C=C/C(F)(F)c3nc4ccc(OC)cc4nc3O2)[C@@H]1C(=O)N[C@]1(C(=O)NS(=O)(=O)C2(C)CC2)C[C@H]1C(F)F [Example 89, (1aR,5S,8S,9S,10R,19E,22aR)-5-tert-butyl-N-[(1R,2R)-2-(difluoromethyl)-1-{[(1-methylcyclopropyl)sulfonyl]carbamoyl}cyclopropyl]-9-ethyl-18,18-difluoro-14-methoxy-3,6-dioxo-1,1a,3,4,5,6,9,10,18,21,22,22a-dodecahydro-8H-7,10-methanocyclopropa[18,19][1,10,3,6]dioxadiazacyclononadecino[11,12-b]quinoxaline-8-carboxamide]
- EC50 [1]: 3.7 nM
- EC50 [2]: 4.3 nM
- EC50 [3]: 6.1 nM
- EC50 [4]: 6 nM
- EC50 [5]: 6 nM
- EC50 [6]: 5.1 nM
- EC50 [7]: 4.6 nM
- EC50 [8]: 3.2 nM
- EC50 [9]: 5.5 nM
- EC50 [10]: 19 nM

SMILES: COc1ccc2nc3c(nc2c1)O[C@H]1CN(C(=O)[C@H](C(C)(C)C)NC(=O)O[C@@H]2C[C@H]2CCCCC3)[C@H](C(=O)N[C@]2(C(=O)NS(=O)(=O)C3(C)CC3)C[C@H]2C(F)F)[C@@H]1C1CC1 [Example 31, (1aR,5S,8S,9S,10R,22aR)-5-tert-butyl-9-cyclopropyl-N-[(1R,2R)-2-(difluoromethyl)-1-{[(1-methylcyclopropyl)sulfonyl]carbamoyl}cyclopropyl]-14-methoxy-3,6-dioxo-1,1a,3,4,5,6,9,10,18,19,20,21,22,22a-tetradecahydro-8H-7,10-methanocyclopropa[18,19][1,10,3,6]dioxadiazacyclononadecino[11,12-b]quinoxaline-8-carboxamide]
- EC50 [1]: 154 nM
- EC50 [2]: 63 nM
- EC50 [3]: 18 nM
- EC50 [4]: 40 nM
- EC50 [5]: 27 nM
- EC50 [6]: 805 nM
- EC50 [7]: 20 nM
- EC50 [8]: 6.6 nM
- Ki (NS3 genotype 1b protease): 0.13 nM
- EC50 [10]: 2070 nM

SMILES: C=C[C@@H]1C[C@]1(NC(=O)[C@@H]1[C@H](CC)[C@@H]2CN1C(=O)[C@H](C(C)(C)C)NC(=O)O[C@@H]1C[C@H]1CCCCC(F)(F)c1nc3ccc(OC)cc3nc1O2)C(=O)NS(=O)(=O)C1CC1 [Example 92, (1aR,5S,8S,9S,10R,22aR)-5-tert-butyl-N-{(1R,2S)-1-[(cyclopropylsulfonyl)carbamoyl]-2-ethenylcyclopropyl}-9-ethyl-18,18-difluoro-14-methoxy-3,6-dioxo-1,1a,3,4,5,6,9,10,18,19,20,21,22,22a-tetradecahydro-8H-7,10-methanocyclopropa[18,19][1,10,3,6]dioxadiazacyclononadecino[11,12-b]quinoxaline-8-carboxamide]
- EC50 [1]: 3 nM
- EC50 [2]: 4.6 nM
- EC50 [3]: 3.2 nM
- EC50 [4]: 3.3 nM
- EC50 [5]: 3 nM
- EC50 [8]: 1.7 nM
- EC50 [9]: 8 nM
